The record followed here is US8314126B2, “Disubstituted phenylpiperdines/piperazines as modulators of dopamine neurotransmission” (NSAB, Filial af Neurosearch Sweden AB, Sverige, priority 2004, dated 2012).

In general, bioavailability refers to dose-corrected exposure relative to a reference, in per cent.

Data set [1] has as its system levels of dopamine and norepinephrine in the cortex. Briefly: Microdialysis in awake and freely moving rats, cortex. It counts as in vivo, rat. The protocol:
Remeron is injected (s.c.) at time-point 0. The values depicted in the graph represent percent of control in relation to baseline values. The microdialysis was performed in awake and freely moving rats. Error-bars=SEM
Example 2 is injected (s.c.) at time-point 0. The values depicted in the graph represent percent of control in relation to baseline values. The microdialysis was performed in awake and freely moving rats. Error-bars=SEM
Male Sprague-Dawley rats weighing 220-320 g were used throughout the experiments. Before the experiment the animals were group housed, five animals in each cage, with free access to water and food. The animals were housed at least one week after arrival prior to surgery and use in the experiments. Each rat was used only once for microdialysis.
We use a modified version (Waters, Lofberg et al. 1994) of the I-shaped probe (Santiago and Westerink 1990). […] Co-ordinates were calculated relative to bregma; dorsal striatum AP +1, ML ±2.6, DV −6.3; Pf cortex, AP +3.2, 8° ML ±1.2, DV −4.0 according to (Paxinos and Watson 1986). […]
30 μl of each sample was injected into the chromatograph. […] The currents generated by the two EC detectors are converted to digital data and evaluated using Chromelion software (Dionex, Sunnyvale, Calif.) on a PC. The method sample turn over time was 4.5 min and two parallel experiments are normally analysed simultaneously on the system. […]

A short description of data set [2]: Oral bioavailability in rat. Particulars: plasma, 12.5 umol/kg, orally 12.5 μmol/kg vs intravenously 5 μmol/kg, ratio of AUC. In kind it is in vivo. On the procedure:
Experiments are performed 24 hours after implantation of arterial and venous catheters. Test compound is administered orally at 12.5 μmol/kg or intravenously at 5 μmol/kg using the venous catheters, n=3 per group. Arterial blood samples are then taken during six hours at 0, 3, 9, 27, 60, 120, 180, 240, 300 and, 360 minutes after administration of the test compound. The oral bioavailability was calculated as the ratio of the AUC (Area under curve) obtained after oral administration over the AUC obtained after intravenous administration for each rat. The parameter AUC was calculated according to the following: […]
AUC: the area under the plasma concentration versus time curve from time zero to the last concentration measured (Clast), calculated by the log/linear trapezoidal method.
The levels of test compound are measured by means of liquid chromatography-mass spectrometry (LC-MS) (Hewlett-Packard 1100MSD Series). The LC-MS module includes a quaternary pump system, vacuum degasser, thermostatted autosampler, thermostatted column compartment, diode array detector and API-ES spray chamber. Data handling was performed with a HP ChemStation rev.A.06.03. system. Instrument settings:MSD mode: Selected ion monitoring (SIM) MSD polarity: Positiv Gas temp: 350° C. Drying gas: 13.0 l/min Nebulizer gas: 50 psig Capillary voltage: 5000 V Fragment or voltage: 70 V
Analytical column: Zorbax eclipse XDB-C8 (4.6*150 mm, 5 μm) at 20° C. The mobile phase was acetic acid (0.03%) (solvent A) and acetonitrile (solvent B). The flow rate of the mobile phase was 0.8 ml/min. The elution was starting at 12% of solvent B isocratic for 4.5 min, then increasing linearity to 60% over 4.5 min.
Extractions procedure: Plasma samples (0.25-0.5 ml) were diluted with water to 1 ml, and 60 pmol (100 μl) internal standard (−)-OSU6241 was added. The pH was adjusted to 11 by the addition of 25 μl saturated Na2CO3. […] The selective ion (MH^+) was monitored for each Example, and MH^+ 296 for (−)-OSU6241 ((3-[3-(ethylsulfonyl)phenyl]-1-propylpiperidine). […]

Data set [3] can be described thus: Metabolic stability in rat liver microsomes. Particulars: 15 minutes incubation at 37° C., NADPH. In kind it is in vitro ADME. The protocol:
Rat liver microsomes were isolated as described by Forlin (1980) Tox Appl Pharm. 54(3) 420-430, with minor modifications e.g. 3 mL/g liver of a 0.1 M Na/K*PO4 buffer with 0.15M KCl, pH 7.4, (buffer 1) was added before homogenisation, the homogenate was centrifuged for 20 minutes instead of 15, the supernatant was ultracentrifuged at 100.000 g instead of 105.000 g and the pellet from the ultracentrifugation was resuspended in 1 mL/g liver of 20% v/v 87% glycerol in buffer 1.
1 μL of, 0.2 or 1 mM test substance diluted in water, and 10 μL 20 mg/mL rat liver microsome were mixed with 149 μL, 37° C. buffer 1 and the reaction was started by addition of 40 μL 4.1 mg/mL NADPH. After 0 or 15 minutes incubation at 37° C. in a heating block (LAB-LINE, MULTI-BLOK Heater or lab4you, TS-100 Thermo shaker at 700 rpm) the reaction was stopped by addition of 100 μL pure acetonitrile. […] The test compound was analysed using HPLC-MS (Hewlett-Packard 1100MSD Series) with a Zorbax SB-C18 column (2.1*150 mm, 5 μm) using 0.03% formic acid and acetonitrile as mobile phase (gradient) or a Zorbax Eclipse XDB-C18 (3*75 mm, 3.5 μm) using 0.03% acetic acid and acetonitrile as mobile phase (gradient). The 15 mM turnover was calculated as the fraction of test compound eliminated after 15 minutes, expressed in percent of 0 mM levels, i.e. 100*[conc test compound at 0 mM—concentration at 15 min]/cone at 0 mM. […]
On the technique in general: Microsomes from liver hold many membrane-bound enzymes, among them those of drug oxidation.

A short description of data set [4]: Activity of compounds of Formula 1 (test not specified). Conditions: test not stated.
The next data set concerns MK-801 pre-treated rats. Briefly: Locomotor activity in MK-801 pre-treated rats. Particulars: MK-801 0.7 mg/kg i.p. alone, recorded between 30 and 60 minutes, ± SEM.

Structures are written as SMILES.

`CCN1CCC(c2cccc(S(C)(=O)=O)c2F)CC1` [Example 2, 1-ETHYL-4-[2-FLUORO-3-(METHYLSULFONYL)PHENYL]-PIPERIDINE]: the “levels of dopamine and norepinephrine in the cortex” value in data set [1] (50 μmol/kg s.c., pf. cortex, FIG. 2) is “elevate the levels of dopamine and norepinephrine in the cortex”. The bioavailability in data set [2] stood at 87%. In data set [3], the “turnover at 15 minutes” value is on record as 1%. Regarding `CCCN1CCC(c2cccc(S(C)(=O)=O)c2C(F)(F)F)CC1` [4-[3-(methylsulfonyl)-2-(trifluoromethyl)phenyl]-1-propylpiperidine], the result in data set [4] was inactive. Take `CCCN1CCC(c2cccc(S(C)(=O)=O)c2F)CC1` [Example 1, 4-[2-FLUORO-3-(METHYLSULFONYL)PHENYL]-1-PROPYLPIPERIDINE]: the bioavailability in data set [2] was roughly 100%.

As for `CCCN1CCC(c2cccc(C(F)(F)F)c2C#N)CC1` [Example 7, 2-(1-PROPYLPIPERIDIN-4-YL)-6-(TRIFLUOROMETHYL)BENZONITRILE], the bioavailability in data set [2] turned out to be 29%.

In the case of `CN1CCN2c3ncccc3Cc3ccccc3C2C1` (centres unmarked) [mirtazapine, reference compound], the “extracellular norepinephrine and dopamine in the cortex” value in data set [1] (10 mg/kg s.c., cortex, FIG. 1) was “increase predominantly extracellullar norepinephrine and dopamine in the cortex”. With `C[C@]12N[C@H](Cc3ccccc31)c1ccccc12` [MK-801], in the data set on MK-801 pre-treated rats, the “Locomotor activity, MK-801” value worked out at 51333 ± 2148 counts/30 min.
